pEC50: −log10 of the molar value.
Biological target: T1, LXRβ (Homo sapiens, UniProt P55055)
T1 construct: Co-transfection expression plasmids, comprising full-length LXRα (pCMX-h LXRα or LXRβ (pCMX-hLXRβ)); expressed in transfected cells; host or cells: CV-1 African green monkey kidney cells, transient transfection with pCMX-hLXRβ
T1 sequence (P55055 1-460): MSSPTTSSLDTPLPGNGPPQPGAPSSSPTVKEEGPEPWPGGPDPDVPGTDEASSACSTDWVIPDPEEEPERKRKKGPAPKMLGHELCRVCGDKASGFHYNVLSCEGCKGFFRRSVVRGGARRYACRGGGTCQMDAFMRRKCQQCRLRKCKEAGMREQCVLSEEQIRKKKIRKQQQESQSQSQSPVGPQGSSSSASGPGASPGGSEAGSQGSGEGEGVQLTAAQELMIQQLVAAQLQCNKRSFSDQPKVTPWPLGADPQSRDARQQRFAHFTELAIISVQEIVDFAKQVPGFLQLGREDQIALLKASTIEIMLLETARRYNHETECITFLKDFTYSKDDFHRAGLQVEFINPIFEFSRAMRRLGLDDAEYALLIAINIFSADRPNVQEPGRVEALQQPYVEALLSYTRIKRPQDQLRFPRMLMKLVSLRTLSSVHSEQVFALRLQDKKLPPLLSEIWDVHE
T1 sequence (P19793 1-462 partner): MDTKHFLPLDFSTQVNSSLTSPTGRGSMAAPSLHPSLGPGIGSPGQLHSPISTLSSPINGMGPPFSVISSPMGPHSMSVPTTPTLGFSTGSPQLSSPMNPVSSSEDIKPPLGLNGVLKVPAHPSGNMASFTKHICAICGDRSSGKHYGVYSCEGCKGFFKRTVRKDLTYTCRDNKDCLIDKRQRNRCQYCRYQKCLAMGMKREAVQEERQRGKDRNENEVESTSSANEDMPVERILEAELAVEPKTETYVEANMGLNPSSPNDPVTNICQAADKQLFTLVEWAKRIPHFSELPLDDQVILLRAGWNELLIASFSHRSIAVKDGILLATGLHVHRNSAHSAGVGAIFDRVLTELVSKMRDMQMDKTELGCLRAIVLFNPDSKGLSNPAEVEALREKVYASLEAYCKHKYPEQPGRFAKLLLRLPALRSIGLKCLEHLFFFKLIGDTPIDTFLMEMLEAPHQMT
Experiment: LXR/LXRE co-transfection assay (luciferase reporter) in CV-1 cells, LXRβ
Assay type: cell-based
Settings: for pEC50: CV-1 cells transfected with pCMX-hLXRβ and LXREx1-Tk-Luciferase, 20 hours incubation, read-out: LXRbeta agonism EC50; for Emax: CV-1 cells, relative to maximum response of high control N-(3-((4-fluorophenyl)-(naphthalene-2-sulfonyl)amino)propyl)-2,2-dimethylpropionamide, read-out: LXRbeta % EFFICACY
How it was run: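 Luciferase read-out after 20 h compound treatment at 37 °C of CV-1 cells carrying transfected hLXRβ plus one-copy LXRE reporter, endogenous RXR partnering. Sigmoidal fit of 10-point half-log curves (4 wells each) gave EC50; % efficacy versus maximal response of the propionamide reference agonist.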

Row | Compound | pEC50 | Emax
1 | Cc1nc(-c2ccc(OC(F)(F)F)cc2)c(-c2cc(-c3cc(Cl)c(CO)c(S(C)(=O)=O)c3)ccc2-c2cc(C(F)(F)F)nn2C)o1 [Example 125, (3-chloro-4′-(1-methyl-3-(trifluoromethyl)-1H-pyrazol-5-yl)-3′-(2-methyl-4-(4-(trifluoromethoxy)phenyl)oxazol-5-yl)-5-(methylsulfonyl)-[1,1′-biphenyl]-4-yl)methanol] | 6.75 | 88%
2 | Cc1nc(-c2ccc(C(F)(F)F)cc2)c(-c2cc(-c3cccc(S(C)(=O)=O)c3)ccc2-n2cc(Cl)c(C(F)(F)F)n2)o1 [Example 437, 5-(4-(4-chloro-3-(trifluoromethyl)-1H-pyrazol-1-yl)-3′-(methylsulfonyl)-[1,1′-biphenyl]-3-yl)-2-methyl-4-(4-(trifluoromethyl)phenyl)oxazole] | 6.49 | 49%
3 | Cc1nc(-c2ccc3c(c2)OC(F)(F)O3)c(-c2cc(-c3cc(F)c(CO)c(S(C)(=O)=O)c3)ccc2-c2cc(C(N)=O)nn2C)o1 [Example 56, 5-(3-(4-(2,2-difluorobenzo[d][1,3]dioxol-5-yl)-2-methyloxazol-5-yl)-3′-fluoro-4′-(hydroxymethyl)-5′-(methylsulfonyl)biphenyl-4-yl)-1-methyl-1H-pyrazole-3-carboxamide] | 5.96 | 35%
4 | Cc1nc(-c2ccc3c(c2)OC(F)(F)O3)c(-c2cc(-c3cc(F)c(CO)c(S(C)(=O)=O)c3)ccc2-n2ccc(C(F)(F)F)n2)o1 [Example 349, (3′-(4-(2,2-difluorobenzo[d][1,3]dioxol-5-yl)-2-methyloxazol-5-yl)-3-fluoro-5-(methylsulfonyl)-4′-(3-(trifluoromethyl)-1H-pyrazol-1-yl)biphenyl-4-yl)methanol] | 8.10 | 72%
5 | Cc1nc(-c2ccc3c(c2)OC(F)(F)O3)c(-c2cc(-c3cc(F)cc(S(C)(=O)=O)c3)ccc2-c2cc(C(F)(F)C(N)=O)nn2C)o1 [Example 45, 2-(5-(3-(4-(2,2-difluorobenzo[d][1,3]dioxol-5-yl)-2-methyloxazol-5-yl)-3′-fluoro-5′-(methylsulfonyl)biphenyl-4-yl)-1-methyl-1H-pyrazol-3-yl)-2,2-difluoroacetamide] | 6.53 | 45%
6 | COc1ncc(-c2nc(C)oc2-c2cc(-c3cccc(S(C)(=O)=O)c3)ccc2-n2cc(Cl)c(C(F)(F)F)n2)cn1 [Example 427, 5-(4-(4-chloro-3-(trifluoromethyl)-1H-pyrazol-1-yl)-3′-(methylsulfonyl)-[1,1′-biphenyl]-3-yl)-4-(2-methoxypyrimidin-5-yl)-2-methyloxazole] | 7.03 | 58%
7 | Cc1nc(-c2cc(-c3ccc(CO)c(S(C)(=O)=O)c3)ccc2-n2nc(C(F)(F)F)cc2C)c(-c2ccc3c(c2)OC(F)(F)O3)o1 [Example 390, (3′-(5-(2,2-difluorobenzo[d][1,3]dioxol-5-yl)-2-methyloxazol-4-yl)-4′-(5-methyl-3-(trifluoromethyl)-1H-pyrazol-1-yl)-3-(methylsulfonyl)biphenyl-4-yl) methanol] | 8.00 | 72%
8 | Cc1nc(-c2ccc3c(c2)OC(F)(F)O3)c(-c2cc(-c3cc(F)c(CO)c(S(C)(=O)=O)c3)ccc2-c2cc(C(F)(F)C(=O)N(C)C)nn2C)o1 [Example 80, 2-(5-(3-(4-(2,2-difluorobenzo[d][1,3]dioxol-5-yl)-2-methyloxazol-5-yl)-3′-fluoro-4′-(hydroxymethyl)-5′-(methylsulfonyl)biphenyl-4-yl)-1-methyl-1H-pyrazol-3-yl)-2,2-difluoro-N,N-dimethylacetamide] | 6.88 | 58%
9 | Cc1nc(-c2ccc3c(c2)OC(F)(F)O3)c(-c2cc(-c3cc(F)c(CO)c(S(C)(=O)=O)c3)ccc2-c2cc(C(C)O)nn2C)o1 (stereo not shown) [Example 103, 1-(5-(3-(4-(2,2-difluorobenzo[d][1,3]dioxol-5-yl)-2-methyloxazol-5-yl)-3′-fluoro-4′-(hydroxymethyl)-5′-(methylsulfonyl)-[1,1′-biphenyl]-4-yl)-1-methyl-1H-pyrazol-3-yl)ethanol] | 6.83 | 47%

More lines, in order of rising pEC50, values ahead:

Row | pEC50 | Emax | Compound
10 | 5.85 | 66% | Cn1nc(C(F)(F)C(C)(C)O)cc1-c1ccc(-c2cccc(S(C)(=O)=O)c2)cc1-n1nncc1-c1ccc2c(c1)OC(F)(F)O2 [Example 33, 1-(5-(3-(5-(2,2-difluorobenzo[d][1,3]dioxol-5-yl)-1H-1,2,3-triazol-1-yl)-3′-(methylsulfonyl)-[1,1′-biphenyl]-4-yl)-1-methyl-1H-pyrazol-3-yl)-1,1-difluoro-2-methylpropan-2-ol]
11 | 6.30 | 107% | Cn1nc(C(F)(F)C(=O)NC(C)(C)CO)cc1-c1ccc(-c2cccc(S(C)(=O)=O)c2)cc1-n1nncc1-c1ccc(OC(F)(F)F)cc1 [Example 28, 2,2-difluoro-N-(1-hydroxy-2-methylpropan-2-yl)-2-(1-methyl-5-(3′-(methylsulfonyl)-3-(5-(4-(trifluoromethoxy)phenyl)-1H-1,2,3-triazol-1-yl)-[1,1′-biphenyl]-4-yl)-1H-pyrazol-3-yl)acetamide]
12 | 6.46 | 37% | Cc1nc(-c2ccc3c(c2)OC(F)(F)O3)c(-c2cc(-c3cccc(S(C)(=O)=O)c3)ccc2-c2cc(C(=O)NC(C)(C)C)nn2C)o1 [Example 113, N-(tert-butyl)-5-(3-(4-(2,2-difluorobenzo[d][1,3]dioxol-5-yl)-2-methyloxazol-5-yl)-3′-(methylsulfonyl)-[1,1′-biphenyl]-4-yl)-1-methyl-1H-pyrazole-3-carboxamide]
13 | 6.69 | 71% | Cc1cc(C(C)(F)F)n(-c2ccc(-c3cccc(S(C)(=O)=O)c3)cc2-n2nncc2-c2ccc(OC(F)(F)F)cc2)n1 [Example 306, 1-{4-[5-(1,1-difluoroethyl)-3-methyl-1H-pyrazol-1-yl]-3′-(methylsulfonyl)biphenyl-3-yl}-5-{4-[(trifluoromethyl)oxy]phenyl}-1H-1,2,3-triazole]
14 | 7.05 | 67% | Cc1nc(-c2cc(-c3cc(F)c(CO)c(S(C)(=O)=O)c3)ccc2-n2ccc(C(F)(F)F)n2)c(-c2ccc(Cl)c(OC(F)F)c2)o1 [Example 396, (3′-(5-(4-chloro-3-(difluoromethoxy)phenyl)-2-methyloxazol-4-yl)-3-fluoro-5-(methylsulfonyl)-4′-(3-(trifluoromethyl)-1H-pyrazol-1-yl)biphenyl-4-yl)methanol]
15 | 7.14 | 75% | Cc1nc(-c2ccc(OC(F)(F)F)cc2)c(-c2cc(-c3cccc(S(C)(=O)=O)c3)ccc2-n2nc(C(F)(F)F)cc2Cl)o1 [Example 345, 5-(4-(5-chloro-3-(trifluoromethyl)-1H-pyrazol-1-yl)-3′-(methylsulfonyl)biphenyl-3-yl)-2-methyl-4-(4-(trifluoromethoxy)phenyl)oxazole]
16 | 7.29 | 62% | Cc1nc(-c2ccc(OC(F)(F)F)cc2)c(-c2cc(-c3cccc(S(C)(=O)=O)c3)ccc2-n2cc(C)c(C(F)(F)F)n2)o1 [Example 440]
17 | 7.80 | 97% | Cc1nc(-c2cc(-c3cccc(S(C)(=O)=O)c3)ccc2-n2ccc(C(F)(F)F)n2)c(-c2ccc(OC(F)F)nc2)o1 [Example 394, 5-(6-(difluoromethoxy)pyridin-3-yl)-2-methyl-4-(3′-(methylsulfonyl)-4-(3-(trifluoromethyl)-1H-pyrazol-1-yl)biphenyl-3-yl)oxazole]

— US9751869B2, “LXR modulators” (BRISTOL-MYERS SQUIBB COMPANY, priority 2013, dated 2017)
